According to the supplement of paper PMC9663587:

Assays:
[1] = compound: CC(=O)c1c(C)c2cnc(Nc3ccc(N4CCNCC4)cn3)nc2n(C2CCCC2)c1=O; test: increase in dead-cell fraction, 72 h; higher = more death;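 note: breast cancer cell lines in 384-well plates, stained with Hoechst plus LIVE/DEAD far red dye and imaged, cells above an LDR intensity threshold counted dead, Hoechst-negative corpses included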
[2] = compound: CN(C)C(=O)c1cc2cnc(Nc3ccc(N4CCNCC4)cn3)nc2n1C1CCCC1 [LEE011/Ribociclib]; test: as above
[3] = compound: CC(=O)c1c(C)c2cnc(Nc3ccc(N4CCN(CCOCCOCCOCCNC(=O)COc5cccc6c5C(=O)N(C5CCC(=O)NC5=O)C6=O)CC4)cn3)nc2n(C2CCCC2)c1=O [BSJ-03-123]; test: as above
[4] = compound: CN(C)C/C=C/C(=O)Nc1ccc(C(=O)N2CCC[C@@H](Nc3ncc(Cl)c(-c4c[nH]c5ccccc45)n3)C2)cc1 [THZ531]; test: as above
[5] = compound: CN(C)C/C=C/C(=O)Nc1ccc(C(=O)Nc2cccc(Nc3ncc(Cl)c(-c4c[nH]c5ccccc45)n3)c2)cc1 [THZ1]; test: GR value, 72 h; higher = faster growth (1 = untreated, <0 = killing);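 note: breast cancer and non-malignant breast epithelial lines, nine half-log doses, viable cells counted by Hoechst and LIVE/DEAD dye imaging versus time-zero plates and DMSO controls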
[6] = compound: CCOc1cc2ncc(C#N)c(Nc3ccc(OCc4ccccn4)c(Cl)c3)c2cc1NC(=O)/C=C/CN(C)C [Neratinib/HKI272]; test: as above

HCC202
increase in dead-cell fraction ([1]; 0.0003162 µM): 0.0137
increase in dead-cell fraction ([1]; 0.001 µM): -0.0003
increase in dead-cell fraction ([1]; 0.003162 µM): 0.0115
increase in dead-cell fraction ([1]; 0.01 µM): 0.0189
increase in dead-cell fraction ([1]; 0.03162 µM): 0.0085
increase in dead-cell fraction ([1]; 0.1 µM): 0.0163
increase in dead-cell fraction ([1]; 0.3162 µM): 0.0112
increase in dead-cell fraction ([1]; 1 µM): 0.0306
increase in dead-cell fraction ([1]; 3.162 µM): 0.0531
increase in dead-cell fraction ([2]; 0.001 µM): 0.0107
increase in dead-cell fraction ([2]; 0.003162 µM): -0.0028
increase in dead-cell fraction ([2]; 0.01 µM): 0.0035
increase in dead-cell fraction ([2]; 0.03162 µM): 0.0081
increase in dead-cell fraction ([2]; 0.1 µM): 0.0043
increase in dead-cell fraction ([2]; 0.3162 µM): 0.0132
increase in dead-cell fraction ([2]; 1 µM): 0.0255
increase in dead-cell fraction ([2]; 3.162 µM): 0.0242
increase in dead-cell fraction ([2]; 10 µM): 0.0292
increase in dead-cell fraction ([3]; 0.001 µM): 0.0092
increase in dead-cell fraction ([3]; 0.003162 µM): 0.0099
increase in dead-cell fraction ([3]; 0.01 µM): 0.0404
increase in dead-cell fraction ([3]; 0.03162 µM): 0.0154
increase in dead-cell fraction ([3]; 0.1 µM): 0.0009
increase in dead-cell fraction ([3]; 0.3162 µM): 0.0019
increase in dead-cell fraction ([3]; 1 µM): 0.0243
increase in dead-cell fraction ([3]; 3.162 µM): 0.0201
increase in dead-cell fraction ([3]; 10 µM): 0.126
increase in dead-cell fraction ([4]; 0.0001 µM): -0.0053
increase in dead-cell fraction ([4]; 0.0003162 µM): 0.002
increase in dead-cell fraction ([4]; 0.001 µM): -0.0003
increase in dead-cell fraction ([4]; 0.003162 µM): -0.0311
increase in dead-cell fraction ([4]; 0.01 µM): 0.0109
increase in dead-cell fraction ([4]; 0.03162 µM): 0.0036
increase in dead-cell fraction ([4]; 0.1 µM): 0.066
increase in dead-cell fraction ([4]; 0.3162 µM): 0.128
increase in dead-cell fraction ([4]; 1 µM): 0.088
GR value ([5]; 0.0001 µM): 0.915 GR
GR value ([5]; 0.0003162 µM): 1.02 GR
GR value ([5]; 0.001 µM): 0.961 GR
GR value ([5]; 0.003162 µM): 0.866 GR
GR value ([5]; 0.01 µM): 0.8 GR
GR value ([5]; 0.03162 µM): 0.397 GR
GR value ([5]; 0.1 µM): 0.154 GR
GR value ([5]; 0.3162 µM): 0.0808 GR
GR value ([5]; 1 µM): 0.0457 GR
GR value ([6]; 0.0003162 µM): 1.05 GR
GR value ([6]; 0.001 µM): 0.953 GR
GR value ([6]; 0.003162 µM): 0.901 GR
GR value ([6]; 0.01 µM): 0.709 GR
GR value ([6]; 0.03162 µM): 0.491 GR
GR value ([6]; 0.1 µM): 0.325 GR
GR value ([6]; 0.3162 µM): 0.214 GR
GR value ([6]; 1 µM): 0.194 GR
GR value ([6]; 3.162 µM): 0.0934 GR
